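All cell lines were grown in 96-well plates and treated with compound for 48 hours. Definition used: TGI = concentration required for complete inhibition of growth.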
How the values were obtained:
Test in all cases: NCI anticancer screen, dose series, 48 h
[1] = test system: COLO 205 colon
[2] = test system: HOP-92 NSCLC
[3] = test system: IGROV1 ovarian
[4] = test system: NCI-H460 lung
[5] = test system: NCI/ADR-RES ovarian
[6] = test system: PC-3 prostate
[7] = test system: SF-268 CNS
[8] = test system: SK-MEL-28 melanoma
[9] = test system: UACC-257 melanoma
[10] = test system: UACC-62 melanoma

Compound	TGI [1] [µM]	TGI [2] [µM]	TGI [3] [µM]	TGI [4] [µM]	TGI [5] [µM]	TGI [6] [µM]	TGI [7] [µM]	TGI [8] [µM]	TGI [9] [µM]	TGI [10] [µM]
CCN(CC)CCOC(c1cc(OC)ccc1OC)c1ccc2n1-c1ccccc1OC2 (configuration not stated)	17.9	9.37	19.7	26.2	13.9	27.4	28.8	29	30.6	7.75
CCOC(=O)c1sc2nc(SC)nc3c2c1N=CN3c1ccc(Br)cc1	> 100	> 100	> 100	> 100	> 100	> 100	–	> 100	> 100	> 100
COc1ccc2c(c1)c1c(n2CCN2CCOCC2)-c2ccccc2CC1	30.8	> 100	> 100	89.2	> 100	> 100	> 100	> 100	> 100	> 100
Cc1ccc2c(c1C)CC1(Cc3c(ccc4c3CCC4)C1=O)C2=O (configuration not stated)	> 100	> 100	> 100	> 100	> 100	> 100	> 100	> 100	> 100	> 100
Cc1cc(-c2nc3ccccc3s2)ccc1NS(=O)(=O)O	> 11.9	> 100	> 100	> 100	> 100	> 100	> 100	> 100	> 100	> 100
Cc1c(Cl)ccc2c(=O)c3cccc(CC(=O)O)c3oc12	> 100	> 100	> 100	> 100	> 100	> 100	> 100	> 100	> 100	–
Clc1nc(Cl)nc(NC23CC4CC(CC(C4)C2)C3)n1	35.5	35.5	28.3	60.4	44.5	> 49.6	38.2	36.8	42.3	35.1
O=C(Cc1nc2ccc(C(=O)c3ccccc3)cc2[nH]c1=O)C(=O)Nc1ccc(Br)cc1	–	> 100	> 100	> 100	> 100	> 100	> 100	> 100	> 100	> 100
CCOC(=O)c1cc(=C2\CCN(CC(C)CC)C2=S)/c(=C(/O)CC)[nH]1 (configuration not stated)	24.1	39.6	37.1	40.8	75.3	38.8	46.3	34.8	31.4	30.8
O=c1c2ccccc2[nH]c(=S)n1-c1ccc(N=Nc2cccc3c(O)cccc23)cc1	> 100	> 100	> 100	> 100	> 100	> 100	> 100	> 100	> 100	68
Nc1nc(Cl)cc(NCC2(CO)CC(CCc3ccccc3)C2)n1 (configuration not stated)	> 100	> 100	> 100	> 100	> 100	> 100	> 100	> 100	> 100	> 100

From PubChem BioAssay (NCI)
